What all share (type): cell-based
For assay [1], the target named is T1, heteromeric KV7.2/KV7.3 channels (KCNQ2, KCNQ3) (Homo sapiens, UniProt O43525+O43526).
T1 construct: expressed in transfected cells; host or cells: CHO-K1
In words: Automated patch-clamp (Sophion Qube 384) potency assay against KV7.2/KV7.3 channels. The conditions noted are these: CHO-K1/Kv7.2/Kv7.3 cells; for EC50: EC50 from concentration-response of shift in Vhalf, 10 concentrations up to 30 μM, read-out: Kv7.2/7.3 EC50; for Kv7.2/7.3 ΔV1/2: maximal shift in the Vhalf from the top of the curve. In outline: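 Whole-cell automated patch clamp on CHO-K1 cells stably expressing human KV7.2/KV7.3, held at −80 mV; I-V steps −100 to +20 mV (1 s) with 0 mV tail pulses, Boltzmann-fitted activation curves. Ten concentrations (1:3 from 30 μM, quadruplicate) versus 0.3% DMSO control; EC50 and maximal shift from 4-parameter fits of Vhalf shift.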

For assay [2], the target named is T2, homomeric KV7.4 channel (KCNQ4) (Homo sapiens, UniProt P56696).
T2 construct: host or cells: CHO-K1
Nature of the assay: Automated patch-clamp (Qube) counter-screening assay against KV7.4 channel. The conditions noted are these: CHO-K1 cells expressing KV7.4; class by maximal shift in the Vhalf at 30 μM. An excerpt:
Assessment of In Vitro Potency Against KV7.4 Channels
A counter-screening assay was also developed on the Qube against the homomeric KV7.4 channel (KCNQ4, Uniprot ID P56696). The cell line used was a stably transfected CHO-K1 with constitutive KV7.4 expression supplied by Charles River Laboratories.
CHO-K1 cells stably expressing KV7.4 channels were maintained in the following culture media: • Hams F-12 with GlutaMAX™ (Life Technologies 31765027), • 10% Fetal clone 2 serum (Perbio Science SH30066.03), and • 250 μg/ml Geneticin™ selective antibiotic (G418, Invitrogen 1013-027).
(§1) Cell maintenance, preparation, recording conditions and voltage protocols were all identical to those above.
(§2) Analysis of Data for Assessment of Potency
(§3) 10 concentrations of test compounds were applied to individual wells in quadruplicate to assess potency as a 1 in 3 dilution series from the maximal concentration of 30 μM. The average shift in the voltage for half activation (Vhalf) for each concentration was used to generate concentration-response curves fitted with a 4-parameter logistic model to estimate the EC50 from the point of inflection of the curve and the maximal shift in the Vhalf from the top of the curve.
(§4) The lower the EC50 value, the higher the potency of the analyzed compound. The selectivity criteria is assigned on the basis of the maximal shift in the Vhalf at 30 μM. […] In Table 3, ND means that selectivity was not determined.

Assay [3] addresses T3, heteromeric KV7.3/KV7.5 channel (KCNQ3, KCNQ5) (Homo sapiens, UniProt O43525+Q9NR82).
T3 construct: host or cells: HEK293
Nature of the assay: Automated patch-clamp counter-screening against KV7.3/KV7.5 channel. The conditions noted are these: HEK293 cells expressing Kv7.3/KV7.5; class by maximal shift in the Vhalf at 30 μM. How it is done: Assessment of in vitro potency against KV7.3/KV7.5 channels
Counter-screening was also carried out against the heteromeric KV7.3/KV7.5 channel (KCNQ3, Uniprot ID 043525; KCNQ5, Uniprot ID Q9NR82). The cell line used was a stably transfected HEK293 cell line with constitutive Kv7.3 expression and tetracycline inducible KV7.5 expression supplied by Charles River Laboratories.
Cells were maintained in the following culture media: • DMEM/F-12 with GlutaMAX™ (Life Technologies 31331-028), • 10% Tet Systems FCS (Clonetech 631106), • 500 μg/ml Geneticin™ selective antibiotic (G418, Invitrogen 1013-027), • 5 μg/ml Blasticidin S HCl (InvivoGen ant-bl-5), and • 100 μg/ml Zeocin (InvivoGen: ant-zn-5).
as §1, §2, §3, §4

Data on 15 compounds can be found in patent publication US20260207563A1, “UREA COMPOUNDS AS ACTIVATORS OF POTASSIUM CHANNELS KV7.2/7.3 USEFUL IN THE TREATMENT OF CNS AND PNS DISORDERS” (ANGELINI PHARMA S.P.A., priority 2022, published 2026).

In the case of `O=C(NCC1CCCCC1)N[C@@H](CO)c1ccnc(OCC(F)(F)F)c1` [Compound 103], in assay [1], the EC50 is 1.34 µM and the “Kv7.2/7.3 ΔV1/2” value was determined as 42.63 mV. Moreover, in assay [2], the Kv7.4 selectivity criteria result is recorded as “A (Selective compounds showed Kv7.4 and/or Kv7.3/7.5 ΔV1/2 equal to or lower than 15 mV (letter A in table 3))”. Moreover, the Kv7.3/7.5 selectivity criteria entry in assay [3] was “B (Non-selective compounds showed Kv7.4 and/or Kv7.3/7.5 ΔV1/2 higher than 15 mV (letter B in table 3))”.
With `O=C(NCCC1(C(F)(F)F)CC1)NC1CCCc2cnc(OCC(F)(F)F)cc21` (stereo not drawn) [Compound 21, 1-(3-(2,2,2-Trifluoroethoxy)-5,6,7,8-tetrahydroisoquinolin-5-yl)-3-(2-(1-(trifluoromethyl)cyclopropyl)ethyl)urea], in assay [1], the EC50 came to 1.8 µM and the “Kv7.2/7.3 ΔV1/2” value came to 14.76 mV. Besides, the Kv7.4 selectivity criteria entry in assay [2] is “B (Non-selective compounds showed Kv7.4 and/or Kv7.3/7.5 ΔV1/2 higher than 15 mV (letter B in table 3))”. For the same compound, the Kv7.3/7.5 selectivity criteria entry in assay [3] is recorded as “B (Non-selective compounds showed Kv7.4 and/or Kv7.3/7.5 ΔV1/2 higher than 15 mV (letter B in table 3))”.
In the case of `O=C(NCCC1(C(F)(F)F)CC1)NCc1ccnc(OCc2ccc(F)cc2F)c1` [Compound 25, 1-((2-((2,4-Difluorobenzyl)oxy)pyridin-4-yl)methyl)-3-(2-(1-(trifluoromethyl)cyclopropyl)ethyl)urea], in assay [1], the EC50 is 0.4 µM and the “Kv7.2/7.3 ΔV1/2” value stood at 25.77 mV. Further, the Kv7.4 selectivity criteria result in assay [2] is given as “A (Selective compounds showed Kv7.4 and/or Kv7.3/7.5 ΔV1/2 equal to or lower than 15 mV (letter A in table 3))”. Further, in assay [3], the Kv7.3/7.5 selectivity criteria entry is given as “A (Selective compounds showed Kv7.4 and/or Kv7.3/7.5 ΔV1/2 equal to or lower than 15 mV (letter A in table 3))”.
Regarding `CC(C)(C)[C@H](O)CNC(=O)NCc1ccnc(OCc2ccccc2)c1` [Compound 4, (S)-1-((2-(Benzyloxy)pyridin-4-yl)methyl)-3-(2-hydroxy-3,3-dimethylbutyl)urea], in assay [1], the EC50 stood at 1.7 µM and the “Kv7.2/7.3 ΔV1/2” value was 27.28 mV. Also, the Kv7.4 selectivity criteria result in assay [2] is recorded as “A (Selective compounds showed Kv7.4 and/or Kv7.3/7.5 ΔV1/2 equal to or lower than 15 mV (letter A in table 3))”. In addition, the Kv7.3/7.5 selectivity criteria entry in assay [3] is listed as “B (Non-selective compounds showed Kv7.4 and/or Kv7.3/7.5 ΔV1/2 higher than 15 mV (letter B in table 3))”.
As for `Cc1ccccc1CNC(=O)NCc1ccnc(OCC(F)(F)F)c1` [Compound 37, 1-(2-Methylbenzyl)-3-((2-(2,2,2-trifluoroethoxy)pyridin-4-yl)methyl)urea], in assay [1], the EC50 came to 0.82 µM and the “Kv7.2/7.3 ΔV1/2” value is 19.56 mV. In addition, in assay [2], the Kv7.4 selectivity criteria entry is given as “A (Selective compounds showed Kv7.4 and/or Kv7.3/7.5 ΔV1/2 equal to or lower than 15 mV (letter A in table 3))”. For the same compound, the Kv7.3/7.5 selectivity criteria result in assay [3] was “A (Selective compounds showed Kv7.4 and/or Kv7.3/7.5 ΔV1/2 equal to or lower than 15 mV (letter A in table 3))”.
Turning to `O=C(NCc1ccnc(OCC(F)(F)F)c1)NCC1CCCc2ccccc21` (stereo not drawn) [Compound 141], in assay [1], the EC50 was determined as 0.285 µM and the “Kv7.2/7.3 ΔV1/2” value came out at 17.59 mV. The Kv7.4 selectivity criteria result in assay [2] was “A (Selective compounds showed Kv7.4 and/or Kv7.3/7.5 ΔV1/2 equal to or lower than 15 mV (letter A in table 3))”. The Kv7.3/7.5 selectivity criteria result in assay [3] was “A (Selective compounds showed Kv7.4 and/or Kv7.3/7.5 ΔV1/2 equal to or lower than 15 mV (letter A in table 3))”.
Regarding `O=C(NCc1ccnc(OCC(F)(F)F)c1)NCC1CCCC(F)(F)C1` (stereo not drawn) [Compound 79, 1-((3,3-Difluorocyclohexyl)methyl)-3-((2-(2,2,2-trifluoroethoxy)pyridin-4-yl)methyl) urea], in assay [1], the EC50 turned out to be 0.862 µM and the “Kv7.2/7.3 ΔV1/2” value was 26.55 mV. Further, in assay [2], the Kv7.4 selectivity criteria result was “A (Selective compounds showed Kv7.4 and/or Kv7.3/7.5 ΔV1/2 equal to or lower than 15 mV (letter A in table 3))”. The Kv7.3/7.5 selectivity criteria entry in assay [3] is recorded as “A (Selective compounds showed Kv7.4 and/or Kv7.3/7.5 ΔV1/2 equal to or lower than 15 mV (letter A in table 3))”.
As for `O=C(NCc1ccnc(OCC(F)(F)F)c1)N[C@H]1CCc2ccc(C(F)(F)F)cc21` [Compound 163], in assay [1], the EC50 came out at 1.07 µM and the “Kv7.2/7.3 ΔV1/2” value amounted to 27.41 mV. Moreover, in assay [2], the Kv7.4 selectivity criteria entry is “A (Selective compounds showed Kv7.4 and/or Kv7.3/7.5 ΔV1/2 equal to or lower than 15 mV (letter A in table 3))”. Besides, the Kv7.3/7.5 selectivity criteria entry in assay [3] is “A (Selective compounds showed Kv7.4 and/or Kv7.3/7.5 ΔV1/2 equal to or lower than 15 mV (letter A in table 3))”.
As for `O=C(NCc1ccnc(C(F)(F)F)c1)NCC1CCCCC1` [Compound 100], in assay [1], the EC50 was 3.94 µM and the “Kv7.2/7.3 ΔV1/2” value was found to be 24.71 mV. Also, the Kv7.4 selectivity criteria result in assay [2] is on record as “A (Selective compounds showed Kv7.4 and/or Kv7.3/7.5 ΔV1/2 equal to or lower than 15 mV (letter A in table 3))”. Further, the Kv7.3/7.5 selectivity criteria result in assay [3] is reported as “B (Non-selective compounds showed Kv7.4 and/or Kv7.3/7.5 ΔV1/2 higher than 15 mV (letter B in table 3))”.
As for `O=C(NCCC1(C(F)(F)F)CC1)N[C@@H](CO)c1ccnc(OCC(F)(F)F)c1` [Compound 112], in assay [1], the EC50 worked out at 0.653 µM and the “Kv7.2/7.3 ΔV1/2” value is reported as 26.53 mV. The Kv7.4 selectivity criteria entry in assay [2] is “A (Selective compounds showed Kv7.4 and/or Kv7.3/7.5 ΔV1/2 equal to or lower than 15 mV (letter A in table 3))”. The Kv7.3/7.5 selectivity criteria result in assay [3] is given as “A (Selective compounds showed Kv7.4 and/or Kv7.3/7.5 ΔV1/2 equal to or lower than 15 mV (letter A in table 3))”.
Take `O=C(NCc1ccnc(OCC(F)F)c1)N[C@@H]1CCc2ccc(F)cc21` [Compound 111]: in assay [1], the EC50 was found to be 2.44 µM and the “Kv7.2/7.3 ΔV1/2” value is 35.96 mV. For the same compound, the Kv7.4 selectivity criteria entry in assay [2] is “A (Selective compounds showed Kv7.4 and/or Kv7.3/7.5 ΔV1/2 equal to or lower than 15 mV (letter A in table 3))”. The Kv7.3/7.5 selectivity criteria entry in assay [3] is “B (Non-selective compounds showed Kv7.4 and/or Kv7.3/7.5 ΔV1/2 higher than 15 mV (letter B in table 3))”.
For `Cc1ccc2c(c1)CCC2NC(=O)NCc1ccnc(OCC(F)(F)F)c1` (stereo not drawn) [Compound 129] the same measures were 0.931 µM, 14.07 mV, “A (Selective compounds showed Kv7.4 and/or Kv7.3/7.5 ΔV1/2 equal to or lower than 15 mV (letter A in table 3))” and “A (Selective compounds showed Kv7.4 and/or Kv7.3/7.5 ΔV1/2 equal to or lower than 15 mV (letter A in table 3))”.
With `Cc1cccc2c1C(NC(=O)NCc1ccnc(OCC(F)(F)F)c1)CC2` (stereo not drawn) [Compound 116], in assay [1], the EC50 was found to be 1.59 µM and the “Kv7.2/7.3 ΔV1/2” value stood at 31.15 mV. For the same compound, in assay [2], the Kv7.4 selectivity criteria entry is listed as “A (Selective compounds showed Kv7.4 and/or Kv7.3/7.5 ΔV1/2 equal to or lower than 15 mV (letter A in table 3))”. Moreover, the Kv7.3/7.5 selectivity criteria entry in assay [3] is on record as “B (Non-selective compounds showed Kv7.4 and/or Kv7.3/7.5 ΔV1/2 higher than 15 mV (letter B in table 3))”.
For `O=C(NCCC1(C(F)(F)F)CC1)NCc1ccnc(OCCF)c1` [Compound 17, 1-((2-(2-Fluoroethoxy)pyridin-4-yl)methyl)-3-(2-(1-(trifluoromethyl)cyclopropyl)ethyl)urea] the same measures were 5.45 µM, 28.27 mV, “A (Selective compounds showed Kv7.4 and/or Kv7.3/7.5 ΔV1/2 equal to or lower than 15 mV (letter A in table 3))” and “A (Selective compounds showed Kv7.4 and/or Kv7.3/7.5 ΔV1/2 equal to or lower than 15 mV (letter A in table 3))”.
As for `O=C(NCCC1(C(F)(F)F)CC1)NCc1ccnc(C(F)F)c1` [Compound 109], in assay [1], the EC50 was determined as 4.79 µM and the “Kv7.2/7.3 ΔV1/2” value is 16.81 mV. The Kv7.4 selectivity criteria result in assay [2] is given as “A (Selective compounds showed Kv7.4 and/or Kv7.3/7.5 ΔV1/2 equal to or lower than 15 mV (letter A in table 3))”. The Kv7.3/7.5 selectivity criteria entry in assay [3] is “A (Selective compounds showed Kv7.4 and/or Kv7.3/7.5 ΔV1/2 equal to or lower than 15 mV (letter A in table 3))”.
